Laboratory results reported in US10047074B2, “Pharmaceutical compound” (IOmet Pharma Ltd., priority 2014, dated 2018).
Values belong to the compound of their own block, whether it stands above or below them.

Key:
[1] = biological target: T1, TDO (A172) (Homo sapiens, UniProt P48775); assay: A172 Kynurenine cell based assay; conditions: A172 human glioblastoma cells expressing TDO; kynurenine production, 48 hours
T1 construct: This assay utilised cancer cells which expressed either TDO (A172) or IDO (SKOV3); endogenous in cells; host or cells: A172 (human glioblastoma)
T1 sequence (P48775 whole entry): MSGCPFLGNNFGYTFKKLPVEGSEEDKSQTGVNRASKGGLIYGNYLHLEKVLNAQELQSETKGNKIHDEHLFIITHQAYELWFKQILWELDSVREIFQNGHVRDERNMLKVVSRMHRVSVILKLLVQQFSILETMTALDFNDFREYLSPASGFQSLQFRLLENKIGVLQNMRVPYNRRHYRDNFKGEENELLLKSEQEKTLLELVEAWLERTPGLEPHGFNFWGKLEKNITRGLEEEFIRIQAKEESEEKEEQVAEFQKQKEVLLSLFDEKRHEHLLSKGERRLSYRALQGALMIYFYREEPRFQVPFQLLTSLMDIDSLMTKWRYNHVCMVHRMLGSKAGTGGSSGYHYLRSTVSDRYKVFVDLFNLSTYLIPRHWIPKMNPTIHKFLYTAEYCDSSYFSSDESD
Description: (§1) Exemplary compounds of the invention were prepared, and tested to determine their effect as TDO and/or IDO inhibitors. Two different assays were employed: 1. a cell-based assay for detecting the effect of test compounds on kynurenine production in two different cancer cell types. This assay utilised cancer cells which expressed either TDO (A172) or IDO (SKOV3) and as such was used as a means of testing compound activity at these two enzymes in a cell-based context. 2. a TDO and IDO biochemical coupled assay which utilised recombinantly produced and purified TDO and IDO enzymes in combination with the enzyme formamidase. This coupled enzyme system allowed conversion of N-formylkynurenine produced by TDO or IDO activity to kynurenine which was then quantified by fluorescence following addition of Erhlich's Reagent The protocols for these are set out below.
(§2) Cell Based Assay for Detection of Kynurenine Produced by TDO and/or IDO
A172 (human glioblastoma) and SKOV3 (human ovarian adenocarcinoma) cells were seeded in a 96 well plate at 30,000 or 40,000 cells per well respectively in phenol red-free RPMI supplemented with 10% FCS, 2 mM L-glutamine and 500 µM L-tryptophan. IDO expression was induced in the SKOV3 cells by the addition of 500 ng/ml IFN-γ. Cells were incubated at 37° C. with or without the addition of test compound. After 48 hours, the cells were removed by centrifugation and Erhlich's reagent was added to the supernatant. The Erhlich's reagent was incubated for 5 minutes before the absorbance was read at 490 nm.

[2] = biological target: T2, IDO (SKOV3) (Homo sapiens, UniProt P14902); assay: SKOV3 Kynurenine cell based assay; conditions: SKOV3 human ovarian adenocarcinoma cells, IDO induced by IFN-γ; kynurenine production, 48 hours
T2 construct: IDO expression was induced in the SKOV3 cells by the addition of 500 ng/ml IFN-γ; endogenous in cells; host or cells: SKOV3 (human ovarian adenocarcinoma), IFN-γ induced
T2 sequence (P14902 whole entry): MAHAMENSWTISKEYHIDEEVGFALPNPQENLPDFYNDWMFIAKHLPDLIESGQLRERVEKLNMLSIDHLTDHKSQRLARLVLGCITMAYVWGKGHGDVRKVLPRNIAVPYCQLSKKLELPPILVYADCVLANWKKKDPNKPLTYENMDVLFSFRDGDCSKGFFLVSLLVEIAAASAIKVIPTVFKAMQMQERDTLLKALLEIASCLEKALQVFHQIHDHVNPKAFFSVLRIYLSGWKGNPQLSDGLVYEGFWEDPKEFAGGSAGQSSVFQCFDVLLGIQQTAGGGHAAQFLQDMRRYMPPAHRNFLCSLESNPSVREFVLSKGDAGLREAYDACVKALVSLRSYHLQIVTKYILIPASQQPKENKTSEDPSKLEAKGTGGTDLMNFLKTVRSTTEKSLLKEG
Description: as §1, §2
A172 (human glioblastoma) and SKOV3 (human ovarian adenocarcinoma) cells were seeded in a 96 well plate at 30,000 or 40,000 cells per well respectively in phenol red-free RPMI supplemented with 10% FCS, 2 mM L-glutamine and 500 µM L-tryptophan. IDO expression was induced in the SKOV3 cells by the addition of 500 ng/ml IFN-γ. Cells were incubated at 37° C. with or without the addition of test compound. After 48 hours, the cells were removed by centrifugation and Erhlich's reagent was added to the supernatant.

SMILES: O=C(Nc1oncc1-c1ccccc1)c1ccccn1 [Compound 40]
- A172 Kynurenine cell based assay pIC50 [1]: +++ (+++ = pIC50 ≥ 5.50)
- SKOV3 Kynurenine cell based assay pIC50 [2]: ++ (++ = pIC50 4.50-5.49)

SMILES: O=S(=O)(Nc1cnoc1-c1ccccc1)c1ccc2ccccc2c1 [Compound 53]
- A172 Kynurenine cell based assay pIC50 [1]: + (+ = pIC50 4.00-4.49)
- SKOV3 Kynurenine cell based assay pIC50 [2]: ++ (++ = pIC50 4.50-5.49)

SMILES: Nc1oncc1-c1ccccc1Cl [Compound 15]
- A172 Kynurenine cell based assay pIC50 [1]: + (+ = pIC50 4.00-4.49)
- SKOV3 Kynurenine cell based assay pIC50 [2]: ++ (++ = pIC50 4.50-5.49)

SMILES: Nc1oncc1-c1ccncc1 [Compound 46]
- A172 Kynurenine cell based assay pIC50 [1]: ++ (++ = pIC50 4.50-5.49)
- SKOV3 Kynurenine cell based assay pIC50 [2]: + (+ = pIC50 4.00-4.49)

SMILES: O=S(=O)(Cc1ccccc1)Nc1oncc1-c1ccccc1 [Compound 29]
- A172 Kynurenine cell based assay pIC50 [1]: + (+ = pIC50 4.00-4.49)
- SKOV3 Kynurenine cell based assay pIC50 [2]: ++ (++ = pIC50 4.50-5.49)

SMILES: Nc1oncc1-c1ccccc1[N+](=O)[O-] [Compound 67]
- A172 Kynurenine cell based assay pIC50 [1]: +/− (+/− = pIC50 < 4.00)
- SKOV3 Kynurenine cell based assay pIC50 [2]: + (+ = pIC50 4.00-4.49)

SMILES: CS(=O)(=O)c1ccc(Cl)c(S(=O)(=O)Nc2cnoc2-c2ccccc2)c1 [Compound 55]
- A172 Kynurenine cell based assay pIC50 [1]: +/− (+/− = pIC50 < 4.00)
- SKOV3 Kynurenine cell based assay pIC50 [2]: + (+ = pIC50 4.00-4.49)

SMILES: Cc1noc(N)c1-c1ccc(Cl)cc1 [Compound 9]
- A172 Kynurenine cell based assay pIC50 [1]: ++ (++ = pIC50 4.50-5.49)
- SKOV3 Kynurenine cell based assay pIC50 [2]: + (+ = pIC50 4.00-4.49)

SMILES: Nc1oncc1-c1ccccc1CCO [Compound 78]
- A172 Kynurenine cell based assay pIC50 [1]: ++ (++ = pIC50 4.50-5.49)
- SKOV3 Kynurenine cell based assay pIC50 [2]: + (+ = pIC50 4.00-4.49)

SMILES: O=S(=O)(Nc1oncc1-c1ccccc1)c1cccnc1 [Compound 59]
- A172 Kynurenine cell based assay pIC50 [1]: +/− (+/− = pIC50 < 4.00)
- SKOV3 Kynurenine cell based assay pIC50 [2]: + (+ = pIC50 4.00-4.49)

SMILES: Nc1oncc1-c1ccc(F)c(F)c1 [Compound 12]
- A172 Kynurenine cell based assay pIC50 [1]: +++ (+++ = pIC50 ≥ 5.50)
- SKOV3 Kynurenine cell based assay pIC50 [2]: ++ (++ = pIC50 4.50-5.49)

SMILES: Nc1oncc1-c1ccc(Cl)cc1 [Compound 2]
- A172 Kynurenine cell based assay pIC50 [1]: +++ (+++ = pIC50 ≥ 5.50)
- SKOV3 Kynurenine cell based assay pIC50 [2]: ++ (++ = pIC50 4.50-5.49)

SMILES: Nc1oncc1-c1cccnc1 [Compound 16]
- A172 Kynurenine cell based assay pIC50 [1]: ++ (++ = pIC50 4.50-5.49)
- SKOV3 Kynurenine cell based assay pIC50 [2]: ++ (++ = pIC50 4.50-5.49)

SMILES: CS(=O)(=O)N1CCC(C(=O)Nc2oncc2-c2ccccc2)CC1 [Compound 38]
- A172 Kynurenine cell based assay pIC50 [1]: ++ (++ = pIC50 4.50-5.49)
- SKOV3 Kynurenine cell based assay pIC50 [2]: + (+ = pIC50 4.00-4.49)

SMILES: CC(=O)N1CCC(C(=O)Nc2oncc2-c2ccccc2)CC1 [Compound 35]
- A172 Kynurenine cell based assay pIC50 [1]: ++ (++ = pIC50 4.50-5.49)
- SKOV3 Kynurenine cell based assay pIC50 [2]: + (+ = pIC50 4.00-4.49)

SMILES: COc1ccccc1-c1cnoc1-c1ccccc1 [Compound 51]
- A172 Kynurenine cell based assay pIC50 [1]: ++ (++ = pIC50 4.50-5.49)
- SKOV3 Kynurenine cell based assay pIC50 [2]: ++ (++ = pIC50 4.50-5.49)

SMILES: O=S(=O)(CC1CCOCC1)Nc1oncc1-c1ccccc1 [Compound 32]
- A172 Kynurenine cell based assay pIC50 [1]: +/− (+/− = pIC50 < 4.00)
- SKOV3 Kynurenine cell based assay pIC50 [2]: + (+ = pIC50 4.00-4.49)

SMILES: O=C(Nc1cnoc1-c1ccccc1)c1ccccc1 [Compound 77]
- A172 Kynurenine cell based assay pIC50 [1]: +/− (+/− = pIC50 < 4.00)
- SKOV3 Kynurenine cell based assay pIC50 [2]: + (+ = pIC50 4.00-4.49)

SMILES: O=S(=O)(Nc1cnoc1-c1ccccc1)c1cc(Cl)ccc1Cl [Compound 54]
- A172 Kynurenine cell based assay pIC50 [1]: + (+ = pIC50 4.00-4.49)
- SKOV3 Kynurenine cell based assay pIC50 [2]: ++ (++ = pIC50 4.50-5.49)

Second part, the compound after the results:

- A172 Kynurenine cell based assay pIC50 [1]: ++ (++ = pIC50 4.50-5.49)
- SKOV3 Kynurenine cell based assay pIC50 [2]: ++ (++ = pIC50 4.50-5.49)
SMILES: O=C(CC1CCCCC1)Nc1oncc1-c1ccccc1 [Compound 24]

- A172 Kynurenine cell based assay pIC50 [1]: ++ (++ = pIC50 4.50-5.49)
- SKOV3 Kynurenine cell based assay pIC50 [2]: + (+ = pIC50 4.00-4.49)
SMILES: CNCC(=O)Nc1oncc1-c1ccccc1 [Compound 71]

- A172 Kynurenine cell based assay pIC50 [1]: ++ (++ = pIC50 4.50-5.49)
- SKOV3 Kynurenine cell based assay pIC50 [2]: +/− (+/− = pIC50 < 4.00)
SMILES: O=C(Nc1oncc1-c1ccccc1)C1CCCN1 (stereo not shown) [Compound 66]

- A172 Kynurenine cell based assay pIC50 [1]: ++ (++ = pIC50 4.50-5.49)
- SKOV3 Kynurenine cell based assay pIC50 [2]: ++ (++ = pIC50 4.50-5.49)
SMILES: O=C(Nc1oncc1-c1ccccc1)C1CC1 [Compound 27]

- A172 Kynurenine cell based assay pIC50 [1]: +++ (+++ = pIC50 ≥ 5.50)
- SKOV3 Kynurenine cell based assay pIC50 [2]: + (+ = pIC50 4.00-4.49)
SMILES: OCCCNc1oncc1-c1ccccc1 [Compound 42]

- A172 Kynurenine cell based assay pIC50 [1]: + (+ = pIC50 4.00-4.49)
- SKOV3 Kynurenine cell based assay pIC50 [2]: +/− (+/− = pIC50 < 4.00)
SMILES: O=C(O)CCC(=O)Nc1oncc1-c1ccccc1 [Compound 33]

- A172 Kynurenine cell based assay pIC50 [1]: + (+ = pIC50 4.00-4.49)
- SKOV3 Kynurenine cell based assay pIC50 [2]: ++ (++ = pIC50 4.50-5.49)
SMILES: O=C(Nc1oncc1-c1ccccc1)c1ccncc1 [Compound 39]

- A172 Kynurenine cell based assay pIC50 [1]: ++ (++ = pIC50 4.50-5.49)
- SKOV3 Kynurenine cell based assay pIC50 [2]: ++ (++ = pIC50 4.50-5.49)
SMILES: CN(C)CC(=O)Nc1oncc1-c1ccccc1 [Compound 37]

- A172 Kynurenine cell based assay pIC50 [1]: ++ (++ = pIC50 4.50-5.49)
- SKOV3 Kynurenine cell based assay pIC50 [2]: + (+ = pIC50 4.00-4.49)
SMILES: CN(C)C(=O)CNc1oncc1-c1ccccc1 [Compound 60]

- A172 Kynurenine cell based assay pIC50 [1]: +/− (+/− = pIC50 < 4.00)
- SKOV3 Kynurenine cell based assay pIC50 [2]: ++ (++ = pIC50 4.50-5.49)
SMILES: CC(C)CS(=O)(=O)Nc1oncc1-c1ccccc1 [Compound 31]

- A172 Kynurenine cell based assay pIC50 [1]: + (+ = pIC50 4.00-4.49)
- SKOV3 Kynurenine cell based assay pIC50 [2]: ++ (++ = pIC50 4.50-5.49)
SMILES: O=C(Cc1ccccc1)Nc1oncc1-c1ccccc1 [Compound 19]

- A172 Kynurenine cell based assay pIC50 [1]: +++ (+++ = pIC50 ≥ 5.50)
- SKOV3 Kynurenine cell based assay pIC50 [2]: ++ (++ = pIC50 4.50-5.49)
SMILES: CCOC(=O)CCC(=O)Nc1oncc1-c1ccccc1 [Compound 28]

- A172 Kynurenine cell based assay pIC50 [1]: +++ (+++ = pIC50 ≥ 5.50)
- SKOV3 Kynurenine cell based assay pIC50 [2]: ++ (++ = pIC50 4.50-5.49)
SMILES: COCC(=O)Nc1oncc1-c1ccccc1 [Compound 25]

- A172 Kynurenine cell based assay pIC50 [1]: +++ (+++ = pIC50 ≥ 5.50)
- SKOV3 Kynurenine cell based assay pIC50 [2]: ++ (++ = pIC50 4.50-5.49)
SMILES: NCC(=O)Nc1oncc1-c1ccccc1 [Compound 73]

- A172 Kynurenine cell based assay pIC50 [1]: +++ (+++ = pIC50 ≥ 5.50)
- SKOV3 Kynurenine cell based assay pIC50 [2]: + (+ = pIC50 4.00-4.49)
SMILES: NCCNc1oncc1-c1ccccc1 [Compound 82]

- A172 Kynurenine cell based assay pIC50 [1]: ++ (++ = pIC50 4.50-5.49)
- SKOV3 Kynurenine cell based assay pIC50 [2]: + (+ = pIC50 4.00-4.49)
SMILES: CN(CCC(=O)Nc1oncc1-c1ccccc1)S(C)(=O)=O [Compound 47]
